In patent publication US9636308B2, “High drug load buprenorphine microspheres and method of producing same” (Oakwood Laboratories LLC, priority 2013, dated 2017):

Assay: Solubility of buprenorphine in solvent systems by visual observation
Excerpt: DCM was used as the main solvent and BzOH as the co-solvent.

Structure (SMILES): CO[C@@]12CC[C@@]3(C[C@@H]1[C@](C)(O)C(C)(C)C)[C@H]1Cc4ccc(O)c5c4[C@@]3(CCN1CC1CC1)[C@H]2O5.Cl [Buprenorphine (salt form), Buprenorphine hydrochloride]
- Increase of solubility by addition of BzOH to DCM (DCM:BzOH 2:1 by weight versus DCM alone): ~46 fold
- Solubility (solvent DCM with benzyl alcohol co-solvent (33% by weight; 2:1 DCM:BzOH)): 0.083 g/g
- Solubility (solvent DCM, no co-solvent): 0.0018 g/g
